Reference: the NIST ThermoML archive (doi:10.1021/acs.jced.6b00455)
Numbers after ± are expanded uncertainties.

Assay: mn = molality of the nth substance listed, in mol/kg
Conditions: 101 kPa, Liquid, Alternating current cell with electrodes

C[N+](C)(C)CCO.O=C([O-])C(F)(F)C(F)(F)C(F)(F)C(F)(F)C(F)(F)C(F)(F)C(F)(F)F [(2-hydroxyethyl)trimethylammonium perfluorooctanoate] + O
Conditions	electrical conductivity [S/m]
293.15 K, m1 = 7.6e-05	0.0005 ± 0.0001
293.15 K, m1 = 0.000243	0.0015 ± 0.0001
293.15 K, m1 = 0.000338	0.0021 ± 0.0001
293.15 K, m1 = 0.000489	0.0031 ± 0.0002
293.15 K, m1 = 0.000626	0.0039 ± 0.0002
293.15 K, m1 = 0.000747	0.0046 ± 0.0003
293.15 K, m1 = 0.000847	0.0053 ± 0.0003
293.15 K, m1 = 0.000968	0.0061 ± 0.0004
293.15 K, m1 = 0.001108	0.007 ± 0.0004
293.15 K, m1 = 0.001301	0.008 ± 0.0005
293.15 K, m1 = 0.001463	0.0091 ± 0.0005
293.15 K, m1 = 0.001591	0.0098 ± 0.0006
293.15 K, m1 = 0.001689	0.0106 ± 0.0006
293.15 K, m1 = 0.00186	0.0114 ± 0.0007
293.15 K, m1 = 0.001996	0.0123 ± 0.0007
293.15 K, m1 = 0.002117	0.0129 ± 0.0008
293.15 K, m1 = 0.00224	0.0138 ± 0.0008
293.15 K, m1 = 0.002376	0.0145 ± 0.0009
293.15 K, m1 = 0.002497	0.0153 ± 0.0009
293.15 K, m1 = 0.00262	0.016 ± 0.001
293.15 K, m1 = 0.002737	0.0167 ± 0.001
293.15 K, m1 = 0.002945	0.018 ± 0.0011
293.15 K, m1 = 0.00309	0.0188 ± 0.0011
293.15 K, m1 = 0.003212	0.0196 ± 0.0012
293.15 K, m1 = 0.003363	0.0202 ± 0.0012
293.15 K, m1 = 0.003476	0.0208 ± 0.0012
293.15 K, m1 = 0.003596	0.0216 ± 0.0013
293.15 K, m1 = 0.003714	0.0222 ± 0.0013
298.15 K, m1 = 6.2e-05	0.0004 ± 0.0001
298.15 K, m1 = 0.000138	0.0009 ± 0.0001
298.15 K, m1 = 0.00019	0.0013 ± 0.0001
298.15 K, m1 = 0.000258	0.0018 ± 0.0001
298.15 K, m1 = 0.000317	0.0022 ± 0.0001
298.15 K, m1 = 0.000375	0.0026 ± 0.0002
298.15 K, m1 = 0.000432	0.003 ± 0.0002
298.15 K, m1 = 0.000488	0.0034 ± 0.0002
298.15 K, m1 = 0.000547	0.0038 ± 0.0002
298.15 K, m1 = 0.000619	0.0044 ± 0.0003
298.15 K, m1 = 0.000704	0.0049 ± 0.0003
298.15 K, m1 = 0.00077	0.0054 ± 0.0003
298.15 K, m1 = 0.000828	0.006 ± 0.0004
298.15 K, m1 = 0.00091	0.0066 ± 0.0004
298.15 K, m1 = 0.000999	0.0072 ± 0.0004
298.15 K, m1 = 0.001085	0.0078 ± 0.0005
298.15 K, m1 = 0.001174	0.0084 ± 0.0005
298.15 K, m1 = 0.001268	0.009 ± 0.0005
298.15 K, m1 = 0.001353	0.0096 ± 0.0006
298.15 K, m1 = 0.001452	0.0102 ± 0.0006
298.15 K, m1 = 0.001544	0.0109 ± 0.0007
298.15 K, m1 = 0.001654	0.0115 ± 0.0007
298.15 K, m1 = 0.001755	0.0119 ± 0.0007
298.15 K, m1 = 0.00185	0.0125 ± 0.0008
298.15 K, m1 = 0.001933	0.013 ± 0.0008
298.15 K, m1 = 0.002054	0.0138 ± 0.0008
298.15 K, m1 = 0.002177	0.0146 ± 0.0009
298.15 K, m1 = 0.002284	0.0152 ± 0.0009
298.15 K, m1 = 0.00241	0.016 ± 0.001
298.15 K, m1 = 0.002525	0.0167 ± 0.001
298.15 K, m1 = 0.002643	0.0174 ± 0.001
298.15 K, m1 = 0.002738	0.018 ± 0.0011
298.15 K, m1 = 0.002963	0.0194 ± 0.0012
298.15 K, m1 = 0.003158	0.0205 ± 0.0012
298.15 K, m1 = 0.003285	0.0213 ± 0.0013
298.15 K, m1 = 0.003418	0.0221 ± 0.0013
298.15 K, m1 = 0.003542	0.0228 ± 0.0014
298.15 K, m1 = 0.00364	0.0234 ± 0.0014
298.15 K, m1 = 0.003768	0.0242 ± 0.0015
298.15 K, m1 = 0.003952	0.0253 ± 0.0015
298.15 K, m1 = 0.004493	0.0287 ± 0.0017
298.15 K, m1 = 0.005611	0.0355 ± 0.0021
298.15 K, m1 = 0.006271	0.0391 ± 0.0023
298.15 K, m1 = 0.006873	0.0424 ± 0.0025
298.15 K, m1 = 0.007507	0.0463 ± 0.0028
303.15 K, m1 = 6.9e-05	0.0006 ± 0.0001
303.15 K, m1 = 0.000173	0.0013 ± 0.0001
303.15 K, m1 = 0.000265	0.002 ± 0.0001
303.15 K, m1 = 0.000396	0.0031 ± 0.0002
303.15 K, m1 = 0.000504	0.0039 ± 0.0002
303.15 K, m1 = 0.000614	0.0048 ± 0.0003
303.15 K, m1 = 0.000711	0.0055 ± 0.0003
303.15 K, m1 = 0.000794	0.0061 ± 0.0004
303.15 K, m1 = 0.000992	0.0077 ± 0.0005
303.15 K, m1 = 0.001091	0.0084 ± 0.0005
303.15 K, m1 = 0.001177	0.0091 ± 0.0005
303.15 K, m1 = 0.00129	0.0099 ± 0.0006
303.15 K, m1 = 0.001381	0.0105 ± 0.0006
303.15 K, m1 = 0.001497	0.0113 ± 0.0007
303.15 K, m1 = 0.001589	0.012 ± 0.0007
303.15 K, m1 = 0.001698	0.0128 ± 0.0008
303.15 K, m1 = 0.002339	0.0176 ± 0.0011
303.15 K, m1 = 0.002615	0.0196 ± 0.0012
303.15 K, m1 = 0.002737	0.0204 ± 0.0012
303.15 K, m1 = 0.002834	0.021 ± 0.0013
303.15 K, m1 = 0.002921	0.0216 ± 0.0013
303.15 K, m1 = 0.003011	0.0222 ± 0.0013
303.15 K, m1 = 0.003103	0.0229 ± 0.0014
303.15 K, m1 = 0.003204	0.0237 ± 0.0014
303.15 K, m1 = 0.003323	0.0244 ± 0.0015
303.15 K, m1 = 0.003408	0.025 ± 0.0015
